The kinase profiling compilation of Christmann-Franck et al. (2016)

Key:
Test in all cases: radiometric filter-binding kinase assay, Kinase HotSpot
Conditions in all cases: compound 0.5 µM; ATP 10 µM
[1] = biological target: CDK3 CCNE1 (human) (UniProt Q00526+P24864)
[2] = biological target: CDK9 CCNK (human) (UniProt O75909+P50750)
[3] = biological target: CDK5 CDK5R1 p25 (human) (UniProt Q00535+Q15078)
[4] = biological target: CDK2 CCNA2 (human) (UniProt P24941+P20248)
[5] = biological target: LTK (human) (UniProt P29376)
[6] = biological target: CDK6 CCND3 (human) (UniProt P30281+Q00534)
[7] = biological target: CDK2 CCNE1 (human) (UniProt P24941+P24864)
[8] = biological target: CDK7 CCNH MNAT1 (human) (UniProt P50613+P51948+P51946)
[9] = biological target: CDK4 CCND3 (human) (UniProt P30281+P11802)
[10] = biological target: CDK5 CDK5R1 p35 (human) (UniProt Q00535+Q15078)
[11] = biological target: DYRK1B (human) (UniProt Q9Y463)
[12] = biological target: STK33 (human) (UniProt Q9BYT3)
[13] = biological target: CDK6 CCND1 (human) (UniProt Q00534+P24385)
[14] = biological target: MAP3K7 TAB1 (human) (UniProt O43318+Q15750)
[15] = biological target: CDK1 CCNB1 (human) (UniProt P06493+P14635)
[16] = biological target: PRKCH (human) (UniProt P24723)
[17] = biological target: CDK9 CCNT1 (human) (UniProt P50750+O60563)
[18] = biological target: CDK4 CCND1 (human) (UniProt P24385+P11802)
[19] = biological target: CDK1 CCNA2 (human) (UniProt P06493+P20248)
Sequence of CDK1 CCNA2 (human) (P06493 whole entry, looked up): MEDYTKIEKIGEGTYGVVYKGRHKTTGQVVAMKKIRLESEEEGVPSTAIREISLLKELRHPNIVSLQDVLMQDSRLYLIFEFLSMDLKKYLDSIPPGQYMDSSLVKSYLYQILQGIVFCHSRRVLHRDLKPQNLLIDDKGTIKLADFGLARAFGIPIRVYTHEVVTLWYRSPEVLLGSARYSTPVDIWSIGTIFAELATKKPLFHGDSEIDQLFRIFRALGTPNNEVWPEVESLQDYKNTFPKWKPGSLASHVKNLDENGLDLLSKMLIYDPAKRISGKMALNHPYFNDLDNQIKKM
Sequence of CDK1 CCNA2 (human) (P20248 whole entry, looked up): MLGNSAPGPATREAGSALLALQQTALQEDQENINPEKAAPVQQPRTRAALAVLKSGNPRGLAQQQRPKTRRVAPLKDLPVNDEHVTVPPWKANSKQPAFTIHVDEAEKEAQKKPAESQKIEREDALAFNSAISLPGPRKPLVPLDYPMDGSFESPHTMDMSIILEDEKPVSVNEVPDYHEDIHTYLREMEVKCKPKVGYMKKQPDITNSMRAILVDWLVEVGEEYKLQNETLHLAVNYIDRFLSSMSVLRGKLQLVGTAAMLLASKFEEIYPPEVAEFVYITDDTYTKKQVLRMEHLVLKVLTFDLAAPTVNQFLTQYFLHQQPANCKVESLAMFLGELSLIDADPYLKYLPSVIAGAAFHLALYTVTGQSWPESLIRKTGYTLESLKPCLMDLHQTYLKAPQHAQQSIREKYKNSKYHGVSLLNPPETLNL

Sequence of CDK1 CCNB1 (human) (P06493 whole entry, looked up): as the sequence (P06493 whole entry, looked up) above
Sequence of CDK1 CCNB1 (human) (P14635 whole entry, looked up): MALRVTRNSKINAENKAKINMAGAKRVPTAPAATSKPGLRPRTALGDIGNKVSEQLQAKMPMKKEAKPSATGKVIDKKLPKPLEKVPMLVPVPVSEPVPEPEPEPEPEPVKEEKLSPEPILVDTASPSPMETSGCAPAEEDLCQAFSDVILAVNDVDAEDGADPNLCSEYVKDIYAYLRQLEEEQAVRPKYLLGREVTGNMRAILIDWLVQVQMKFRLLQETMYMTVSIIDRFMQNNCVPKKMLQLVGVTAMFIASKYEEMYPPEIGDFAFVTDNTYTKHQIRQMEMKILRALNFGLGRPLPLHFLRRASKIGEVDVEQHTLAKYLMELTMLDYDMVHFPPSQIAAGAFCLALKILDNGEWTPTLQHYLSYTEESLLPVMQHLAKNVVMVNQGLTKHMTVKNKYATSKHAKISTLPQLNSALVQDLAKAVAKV
Sequence of CDK6 CCND3 (human) (P30281 whole entry, looked up): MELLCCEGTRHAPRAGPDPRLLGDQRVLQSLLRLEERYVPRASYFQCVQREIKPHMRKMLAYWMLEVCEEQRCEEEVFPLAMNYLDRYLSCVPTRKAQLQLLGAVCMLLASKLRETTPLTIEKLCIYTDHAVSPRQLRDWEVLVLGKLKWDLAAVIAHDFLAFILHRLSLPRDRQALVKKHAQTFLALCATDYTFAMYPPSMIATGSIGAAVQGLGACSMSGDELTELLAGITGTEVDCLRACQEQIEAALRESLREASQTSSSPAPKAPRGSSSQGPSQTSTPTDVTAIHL
Sequence of CDK6 CCND3 (human) (Q00534 whole entry, looked up): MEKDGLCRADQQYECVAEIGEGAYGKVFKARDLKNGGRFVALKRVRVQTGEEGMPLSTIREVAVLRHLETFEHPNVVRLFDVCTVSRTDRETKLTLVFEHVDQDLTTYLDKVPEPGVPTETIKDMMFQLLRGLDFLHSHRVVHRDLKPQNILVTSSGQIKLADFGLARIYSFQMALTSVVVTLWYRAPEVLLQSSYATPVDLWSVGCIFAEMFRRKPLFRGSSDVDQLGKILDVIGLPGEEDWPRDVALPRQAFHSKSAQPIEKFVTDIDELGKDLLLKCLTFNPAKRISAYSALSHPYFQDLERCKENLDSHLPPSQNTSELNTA
Sequence of CDK9 CCNT1 (human) (O60563 whole entry, looked up): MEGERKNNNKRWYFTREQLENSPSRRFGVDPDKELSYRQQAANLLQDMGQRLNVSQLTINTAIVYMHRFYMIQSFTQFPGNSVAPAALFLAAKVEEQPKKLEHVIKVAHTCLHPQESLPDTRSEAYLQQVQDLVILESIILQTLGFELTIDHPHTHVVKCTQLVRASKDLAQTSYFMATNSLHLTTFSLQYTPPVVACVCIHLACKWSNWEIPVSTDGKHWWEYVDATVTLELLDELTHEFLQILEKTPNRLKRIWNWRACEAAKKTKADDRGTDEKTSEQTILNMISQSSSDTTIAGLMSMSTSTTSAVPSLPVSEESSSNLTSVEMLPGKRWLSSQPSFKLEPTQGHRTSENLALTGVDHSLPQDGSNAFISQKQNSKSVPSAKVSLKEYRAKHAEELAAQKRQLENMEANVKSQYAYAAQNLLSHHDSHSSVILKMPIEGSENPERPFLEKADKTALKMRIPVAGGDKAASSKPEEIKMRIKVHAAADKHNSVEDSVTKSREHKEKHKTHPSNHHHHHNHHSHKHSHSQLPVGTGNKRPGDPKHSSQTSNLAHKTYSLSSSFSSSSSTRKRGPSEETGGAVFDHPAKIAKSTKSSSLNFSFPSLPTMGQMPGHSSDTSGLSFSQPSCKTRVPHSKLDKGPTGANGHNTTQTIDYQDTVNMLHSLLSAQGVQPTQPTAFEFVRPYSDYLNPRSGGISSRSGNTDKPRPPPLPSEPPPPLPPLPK
Sequence of CDK9 CCNT1 (human) (P50750 whole entry, looked up): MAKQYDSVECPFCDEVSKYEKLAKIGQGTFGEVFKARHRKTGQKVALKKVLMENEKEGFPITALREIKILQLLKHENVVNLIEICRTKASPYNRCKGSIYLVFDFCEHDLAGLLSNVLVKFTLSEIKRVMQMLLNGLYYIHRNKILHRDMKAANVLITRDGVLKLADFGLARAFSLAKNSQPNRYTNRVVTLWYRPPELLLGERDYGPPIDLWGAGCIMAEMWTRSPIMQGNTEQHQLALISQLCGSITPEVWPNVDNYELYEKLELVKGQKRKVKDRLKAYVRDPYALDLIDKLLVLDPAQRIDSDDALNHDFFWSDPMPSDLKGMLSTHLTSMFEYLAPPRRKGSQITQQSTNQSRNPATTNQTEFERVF
Sequence of CDK6 CCND1 (human) (P24385 whole entry, looked up): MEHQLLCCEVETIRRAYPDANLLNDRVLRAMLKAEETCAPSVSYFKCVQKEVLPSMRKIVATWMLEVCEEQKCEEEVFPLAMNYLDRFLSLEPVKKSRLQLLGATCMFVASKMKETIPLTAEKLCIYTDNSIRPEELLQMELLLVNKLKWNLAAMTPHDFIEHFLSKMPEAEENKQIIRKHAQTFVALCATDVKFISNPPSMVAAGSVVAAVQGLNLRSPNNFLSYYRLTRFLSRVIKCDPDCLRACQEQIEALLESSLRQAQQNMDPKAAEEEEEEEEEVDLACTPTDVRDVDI
Sequence of CDK6 CCND1 (human) (Q00534 whole entry, looked up): as the sequence (Q00534 whole entry, looked up) above
Sequence of CDK4 CCND3 (human) (P11802 whole entry, looked up): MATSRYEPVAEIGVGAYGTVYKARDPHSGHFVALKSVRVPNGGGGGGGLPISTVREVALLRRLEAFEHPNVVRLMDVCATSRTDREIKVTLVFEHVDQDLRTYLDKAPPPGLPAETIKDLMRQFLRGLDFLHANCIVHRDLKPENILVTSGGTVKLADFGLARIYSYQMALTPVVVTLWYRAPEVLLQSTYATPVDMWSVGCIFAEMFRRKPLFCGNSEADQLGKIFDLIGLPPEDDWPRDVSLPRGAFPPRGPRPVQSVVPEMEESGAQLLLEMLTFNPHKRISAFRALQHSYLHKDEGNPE
Sequence of CDK4 CCND3 (human) (P30281 whole entry, looked up): as the sequence (P30281 whole entry, looked up) above
Sequence of CDK4 CCND1 (human) (P11802 whole entry, looked up): as the sequence (P11802 whole entry, looked up) above
Sequence of CDK4 CCND1 (human) (P24385 whole entry, looked up): as the sequence (P24385 whole entry, looked up) above
Sequence of DYRK1B (human) (Q9Y463 whole entry, looked up): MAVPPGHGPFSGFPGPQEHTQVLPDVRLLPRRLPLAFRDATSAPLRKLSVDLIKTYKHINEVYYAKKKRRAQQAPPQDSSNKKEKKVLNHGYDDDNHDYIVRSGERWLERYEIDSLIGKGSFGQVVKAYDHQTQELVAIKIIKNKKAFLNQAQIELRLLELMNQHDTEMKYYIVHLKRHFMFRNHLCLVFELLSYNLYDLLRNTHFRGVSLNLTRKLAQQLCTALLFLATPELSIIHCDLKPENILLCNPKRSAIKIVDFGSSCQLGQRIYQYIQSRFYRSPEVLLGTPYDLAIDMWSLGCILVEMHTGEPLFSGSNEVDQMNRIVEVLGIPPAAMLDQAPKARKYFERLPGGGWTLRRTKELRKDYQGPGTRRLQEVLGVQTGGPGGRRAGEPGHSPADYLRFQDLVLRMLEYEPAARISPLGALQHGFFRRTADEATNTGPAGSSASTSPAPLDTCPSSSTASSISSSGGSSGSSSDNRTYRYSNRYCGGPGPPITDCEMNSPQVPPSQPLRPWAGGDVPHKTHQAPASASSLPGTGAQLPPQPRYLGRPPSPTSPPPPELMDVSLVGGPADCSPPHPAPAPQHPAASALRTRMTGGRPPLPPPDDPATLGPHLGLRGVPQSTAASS
Sequence of CDK2 CCNA2 (human) (P20248 whole entry, looked up, other chains not shown): as the sequence (P20248 whole entry, looked up) above

SMILES | residual activity [1] [%] | residual activity [2] [%] | residual activity [3] [%] | residual activity [4] [%] | residual activity [5] [%] | residual activity [6] [%] | residual activity [7] [%] | residual activity [8] [%] | residual activity [9] [%] | residual activity [10] [%] | residual activity [11] [%] | residual activity [12] [%] | residual activity [13] [%] | residual activity [14] [%] | residual activity [15] [%] | residual activity [16] [%] | residual activity [17] [%] | residual activity [18] [%] | residual activity [19] [%]
Cc1cn(-c2cc(NC(=O)c3ccc(C)c(Nc4nccc(-c5cccnc5)n4)c3)cc(C(F)(F)F)c2)cn1 | 95.2 | 97.9 | 91.7 | 95.5 | 101 | 128 | 98.9 | 109 | 108 | 105 | 92.8 | 87.1 | 97.1 | 89.2 | 97.8 | 121 | 94.7 | 97 | 99.7
CN1CCN(c2ccc3nc(-c4c(N)c5c(F)cccc5[nH]c4=O)[nH]c3c2)CC1 | 92.3 | 91.1 |  | 91 | 92.5 | 31.9 | 92.3 | 104 | 89.6 |  | 87.9 | 60.7 | 74.6 | 19.3 | 90.9 | 103 | 97.7 | 79.5 | 93.6
NCCNc1ncc(C(N)=O)c(Nc2cccc(C(F)(F)F)c2)n1 | 95.3 | 95.6 | 92.4 | 97.6 | 84.8 | 100 | 89 | 98.5 | 94.8 | 84.2 | 85.9 | 81.9 | 94.6 | 71.2 | 81.7 |  | 82 | 108 | 88.3
O=C1c2ccccc2-c2n[nH]c3cccc1c23 | 94.3 | 96 |  | 76.1 | 77.8 | 88.6 | 79.5 | 94.7 | 104 |  | 65.7 | 47.7 | 88.6 | 59.3 | 63.4 | 87.6 | 99.3 | 96.3 | 85.6
